The values below come from patent US12441746B2, “HCK inhibitors for the treatment of fibrosis and cancer” (Icahn School of Medicine at Mount Sinai, priority 2020, dated 2025).

The target of one data set is T1, HCK kinase (Homo sapiens, UniProt P08631).
T1 construct: purchased Reaction Biology Corp
Briefly: HCK activity inhibition, radioactive kinase assay (Reaction Biology Corp). The data set is classed as biochemical. The protocol:
HCK activity inhibition efficiency for the inhibitors. Inhibiting efficiency is performed in Reaction Biology with Corp P32 radioactive kinase assay, comparing compounds of the invention with dasatinib for HCK, Bcr-Abl and other binding kinases identified in the reference. Briefly, HCK kinase was delivered into the substrate solution and gently mixed, then compounds in DMSO were added into the kinase reaction mixture by Acoustic technology (Echo550; Nano liter range), and incubated for 20 minutes at room temperature. 33P-ATP was delivered into the reaction mixture to initiate the reaction. The kinase reaction was incubated for 2 hours at room temperature. Reactions were spotted onto P81 ion exchange paper, and detected kinase activity was measured by filter-binding method.

The test system of the next data set is HK2 cells. Briefly: mRNA expression of fibrosis markers in HK2 cells. The data set is classed as cell-based.
The test system of data set [1] is SMAD3 transcriptional activity in HEK293 cells. The data set can be described thus: SMAD3 transcriptional activity in HEK293 cells. It counts as cell-based.
A further data set relates to murine UUO model. Briefly: Murine unilateral ureteral obstruction (UUO) kidney fibrosis model. The data set is classed as in vivo, Male C57BL/6 mice. The following applies: 25 mg/kg by gavage daily, 7-days post-UUO. The protocol:
Inhibiting Hck activity in vivo with Example 2 attenuates kidney fibrosis in murine UUO model: Unilateral ureteral obstruction (UUO) was performed on Male C57BL/6 mice (˜10 weeks age). Mice were perfused 7-days post UUO. The inhibitory activity of the compounds of the invention as compared to controls was determined. The UUO mice were treated with Example 2 at 25 mg/kg or vehicle (n=5) by gavage daily started one day prior to the surgery to 7-days post-surgery. […] Compounds of the invention are promising HCK-specific inhibitors.
FIG. 1 depicts mRNA—levels of pro-fibrotic markers at 7-days post-UUO by RT-PCR (normalized to GAPDH), from whole cortices of control and UUO kidneys of Example 2 and PBS-fed animals. […] Values are mean±SEM. *P<0.05.

The test system of the next data set is Src-family kinase (SFK). The data set can be described thus: Inhibition of all Src-family kinase (SFK) activity. It counts as biochemical. To be noted: FIG. 3.
Another data set in a line: Cytotoxicity. To be noted: at 50 uM (data not shown). It counts as cell-based.
Where [2] appears, read: compared with vehicle-treated mice.

Read-outs that look alike come from different tables or passages of the source.

T1 sequence (P08631 whole entry): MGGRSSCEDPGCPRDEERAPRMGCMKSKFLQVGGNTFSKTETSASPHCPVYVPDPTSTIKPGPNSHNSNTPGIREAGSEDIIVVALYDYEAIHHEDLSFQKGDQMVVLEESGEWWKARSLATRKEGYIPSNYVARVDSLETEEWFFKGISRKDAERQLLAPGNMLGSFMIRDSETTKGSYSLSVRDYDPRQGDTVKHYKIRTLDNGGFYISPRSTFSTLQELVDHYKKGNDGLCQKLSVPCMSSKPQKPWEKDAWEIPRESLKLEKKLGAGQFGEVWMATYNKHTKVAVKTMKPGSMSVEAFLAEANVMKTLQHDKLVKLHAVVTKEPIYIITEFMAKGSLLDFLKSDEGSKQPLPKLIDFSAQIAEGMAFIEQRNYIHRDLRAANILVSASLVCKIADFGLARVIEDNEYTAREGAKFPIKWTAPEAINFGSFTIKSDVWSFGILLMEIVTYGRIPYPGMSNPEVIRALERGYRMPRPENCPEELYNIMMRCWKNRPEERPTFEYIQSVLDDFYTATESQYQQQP

Turning to `Clc1cc(Cl)c2c(c1)C=C(C1=NOB(c3ccccc3)N1)C(c1ccccc1)O2` (centres unmarked) [Example 2, 3-(6,8-dichloro-2-phenyl-2H-chromen-3-yl)-5-phenyl-4,5-dihydro-1,2,4,5-oxadiazaborole], the IC50 at HCK kinase (HCK, read-out: IC50) was less than 20 µM. Moreover, at HCK kinase (radioactive kinase assay, 33P-ATP, 2 hours at room temperature, read-out: IC50 for HCK activity), the IC50 was roughly 12 µM. Besides, the “mRNA expression of fibrosis markers” value with HK2 cells (FIG. 4) is on record as “reduced”. In the data set with HK2 cells (HK2 cells), the “mRNA expression of COL1A1” value was “reduced”, the “mRNA expression of FN1” value was “reduced” and the “mRNA expression of SNAIL” value was “reduced”. In addition, the SMAD3 transcriptional activity result in data set [1] was “reduced”. Further, in the data set with murine UUO model, the “renal fibrosis in the UUO kidneys (Masson and collagen I staining)” value is reported as “reduced renal fibrosis”. The “RTEC injury in the UUO kidney (H&E staining)” value in the data set on murine UUO model (compared to vehicle-treated mice) was “reduced RTEC injury”. In addition, in the data set with murine UUO model (setting [2]), the “expression of Col1a1 in the UUO kidney” value is “significantly decreased”, the “expression of FSP-1 in the UUO kidney” value is “significantly decreased” and the “expression of Fibronectin in the UUO kidney” value is on record as “significantly decreased”. In addition, in the data set on Src-family kinase (SFK), the “selectivity among Src-family kinases” value is given as “selectivity to HCK inhibition”. Further, the cytotoxicity entry in the data set “Cytotoxicity” was “no cytotoxicity”.
